From publication PMC5993284, “Peptide inhibitors of the anaphase promoting-complex that cause sensitivity to microtubule poison” (PLoS ONE, 2018)
“Also recorded” adds a separate entry of the source. Ends that are not written are not given here. * marks the point of attachment. Biotin = O=C1N[C@H]2[C@H](CS[C@H]2CCCCC(=O)*)N1

B1: PQ65: 65 amino acid residue peptide called PQ65 (Cdc20 169–232) (peptide, UniProt P26309 169-232, looked up, fragment)
chain: PPNASPISHLRAQTKIVFKQNVAEACGLDMNKRILQYMPEPPKCSSLRQKSYIMKKRTHYSYQQ

Key:
[1] = test system: budding yeast Saccharomyces cerevisiae cells; test: Benomyl sensitivity upon over expression in vivo (colony numbers per plate); format: cell-based; conditions: for benomyl sensitivity on over expression (in words): pGAL1-10 over expression with N-terminal NLS, 12.5 μg/mL benomyl, average colony numbers per plate, 5 replicates; for effect of over expression on colony number without benomyl (in words): pGAL1-10 over expression, galactose, no benomyl
Description: For the production of high quality DNA for in vitro transcription/translation E. coli were grown in 50 mL LB containing 100 μg/mL ampicillin for 12–16 hours at 37 °C. Purified plasmid DNA, which was dissolved with 50 μL ddH2O or DEPC (diethyl pyrocarbonate)-treated water, was measured at OD260/280 and stored at -20 °C (Bioman, Inc., Taiwan). All mutant allele expression plasmids were constructed employing site-directed mutagenesis following the manufacturer’s protocol (Stratagene, USA). Yeast were cultured under standard conditions. For large-scale yeast cultures to purify APC/C, yeast were cultured overnight in 10 mL YPD medium (20 g Dextrose, 20 g peptone, and 10 g yeast extract per liter) at 30 °C. 1.5 L of YPD medium in two Fernbach flasks was inoculated with 1 mL overnight culture and supplemented with 100 μg/mL ampicillin and 100 μg/mL streptomycin to prevent bacterial growth. Cell cycle arrest, collection of yeast cells and yeast cell extractions were all performed as previously described.
There is a long-term interest in identifying APC/C inhibitors that give rise to sensitivity to microtubule poisons in vivo. To determine if a Cdc20 Mad2-binding motif peptide was sufficient to induce a microtubule poison sensitivity phenotype in vivo, the DQ36 and PQ65 peptides were over expressed under the control of a galactose inducible pGAL1-10 promoter that had been integrated as single copy into the yeast genome together with the peptide open reading frames (ORF). The expressed proteins were engineered to contain an N-terminal nuclear localization signal ([…]) along with a short amino acid ‘linker’ in order to target the nuclear pool of the APC/C because yeast undergo a closed mitosis without nuclear envelope breakdown. […] This phenotype was suppressed by mutating the yeast KILR-motif residues RILQY to AAAAA (Fig 7B) providing a direct correlation between our observed in vitro APC/C inhibition that requires the yeast KILR-motif RILQY residues and an in vivo microtubule poison sensitivity phenotype.

[2] = test system: APC/C^Cdh1; test: APC/C^Cdh1 enzyme assay (ubiquitination of 35S-Pds1); format: biochemical, Saccharomyces cerevisiae; conditions: 220 μM peptide; 35S-Pds1 substrate; time course 0-60 minutes; vs buffer; n = 3
Description: Full-length, radio-labeled protein purifications were preformed as previously described. ^35S-Pds1 was prepared in a 500 μL IVT/T (In Vitro Transcription/Translation) reaction (Promega, USA), which contained 400 μL rabbit reticulocyte lysate, 20 μL of L-^35S-methionine (PerkinElmer, USA), 10 μg of plasmid DNA, and the remaining volume as nuclease-free ddH2O as recommended by the manufacturer. The reaction mixture was incubated for 2 hours at room temperature and gently mixed every 30 minutes. The reaction was added to pre-equilibrated IgG Sepharose beads (GE Healthcare, USA) in Bio-spin disposable chromatography columns (Bio-Rad, USA) for binding for 2 hours at room temperature. To ensure efficient binding, the beads were re-suspended several times every 30 minutes. After binding, the beads were washed with 5 mL wash buffer, containing 200 mM 4-(2-hydroxyethyl)-1-piperazineethanesulfonic acid (HEPES) at pH 8.0, 150 mM NaCl, 10% (v/v) glycerol, and 1 mM dithiothreitol (DTT). The ^35S-Pds1 was cleaved from the beads using TEV (Tobacco Etch Virus) protease in 1x TEV buffer (Invitrogen, USA) for 2 hours at room temperature, and the mixture was re-suspended several times every 30 minutes to promote efficient cleavage. The elution was collected and concentrated by employing an Amicon Ultra filter column (Millipore, Ireland). The concentrated ^35S-Pds1 was collected in a new tube, and stored at -20 °C.
The production of Cdc20 or Cdh1 was prepared by IVT/T reactions, where 16 μL of rabbit reticulocyte lysate, 20 μM L-methionine, 0.4 μg of plasmid DNA, and a volume of nuclease-free ddH2O for a total volume of 20 μL. This freshly synthesized Cdc20 or Cdh1 protein was used directly in all APC/C assays after a 1-hour synthesis reaction at room temperature. The APC/C was purified for enzyme assays from 1 mL of TAP-tagged Cdc16 yeast extract (SCSY51) where extract was mixed with 50 μL 50:50 slurry magnetic beads (Invitrogen, Norway) for 2 hours at 4 °C. After incubation, the beads were washed with 3 mL APC/C wash buffer (200 mM of HEPES, 150 mM of NaCl and 10% (v/v) of glycerol). APC/C bound to IgG magnetic beads was used directly in the enzyme assays.
APC/C assays were performed by adding the reaction contents in following order: 4.3 μL of QAH buffer, 20 μL of rabbit reticulocyte lysate containing Cdc20 or Cdh1 with or without an additional volume of recombinant checkpoint protein(s) or inhibitor peptides, 2.4 μL ubiquitin aldehyde (Boston Biochem, USA), APC/C, 16 μL pre-charged E1/E2/ATP/ubiquitin mix, and 13.3 μL of ^35S-Pds1 with QAH buffer (20 mM HEPES at pH 8.0, 100 mM NaCl, and 1 mM MgCl2). […]

| Molecule | benomyl sensitivity on over expression (in words) [1] | effect of over expression on colony number without benomyl (in words) [1] | inhibition of APC/C^Cdh1 activity (in words) [2] |
| --- | --- | --- | --- |
| DQ36-mut1: DQ36-mut1 where all 5 RILQY residues were changed to alanine AAAAA (Biotin-DMNKAAAAAMPEPPKCSSLRQKSYIMKKRTHYSYQQ) | The benomyl sensitivity phenotype was not observed | no significant difference in colony numbers per plate in the absence of benomyl | displayed a similar loss in the ability to inhibit this APC/C^Cdh1 enzyme activity relative to wild type DQ36 |
| B1 | induced a significant sensitivity to benomyl; also recorded: leads to sensitivity to the microtubule poison benomyl | no change in colony number or colony morphology was observed; also recorded: no significant difference in colony numbers per plate in the absence of benomyl | observed to inhibit APC/C^Cdh1; also recorded: a significant level of APC/C^Cdh1 inhibition was observed |
